Test results published in a melting point compilation (Tetko et al.; mined from patent text by program, amines drawn as free bases though some values may be those of a salt).

Row | Structure (SMILES) | melting point [°C]
1 | COc1cc(COc2nn(-c3ccccc3)cc2CCC(=O)O)ccc1OCc1nc(-c2ccco2)oc1C | 161 to 162
2 | CC1=CC(=O)C(C(=O)C=Cc2cccs2)C(=O)O1 (stereo unspecified) | 162 to 164
3 | CC1(C)C(=O)Nc2ccc([N+](=O)[O-])cc21 | 192 to 196
4 | CN(Cc1ccc(NC(=O)C2=Cc3cc(-c4ccc(OC(F)(F)F)cc4)ccc3S(=O)(=O)CC2)cc1)C1CCOCC1 | 261 to 263
5 | Cc1cccc(Sc2c(O)c3ccc(Cl)cc3[nH]c2=O)c1 | 234 to 236
6 | CN(Cc1cccc2c1CN(C1CCC(=O)NC1=O)C2=O)C(=O)NC(C)(C)C (stereo unspecified) | 216 to 218
7 | CCCCCCCCCCCCCCOC(=O)c1cc(C(=O)OCCCCCCCCCCCCCC)cc(N(CC(=O)O)CC(=O)O)c1 | 84 to 87
8 | COc1ccc(S)c(-n2c(=O)[nH]cc(C(=O)O)c2=O)c1 | 277 to 278
9 | CCOc1ccc(C(=O)Nc2ccccc2)cc1Nc1cccc(C(F)(F)F)c1 | 184 to 185
10 | COC(=O)[C@H](Cc1cc(F)cc(F)c1)NC(=O)OC(C)(C)C | 81
11 | CC(=O)CC(=O)Nc1ccc(Cn2ccnc2)cc1 | 175
12 | Clc1cccc2c1Sc1ccccc1N2C1=CCCN1C1=NCCC1 | 195 to 197
13 | Cc1cccc2[nH]c(C(=O)NCCc3ccc(CCCC(=O)O)cc3)cc12 | 132 to 134
14 | CC1CCCN1Cc1ccc(N/C=C2\C(=O)NC(=O)c3ccc(I)cc32)cc1 (stereo unspecified) | 157 to 158
15 | Cc1noc(C)c1-c1ccccc1OC1SCC(O)C(O)C1O (stereo unspecified) | 110 to 117
16 | CC(NC(=O)c1cc(Cl)ccc1NC(=O)C1CC(O)=NN1c1ncccc1Cl)C1CC1 (stereo unspecified) | 165 to 167
17 | Cc1c2ccccc2c(C)c2cc3c(cc12)C(=O)OC3=O | 278
18 | O=C(Cc1ccc(Cl)cc1)N1CCCCC1 | 85 to 85.5
19 | O=C(O)c1cc(F)ccc1Sc1ccccc1 | 146 to 148
20 | O=C(NCC1CCCCN1)c1cc(O)ccc1OCC(F)(F)F (stereo unspecified) | 134 to 137
21 | CC(C)n1cc2c3c(cccc31)C1CC(C(=O)NC3CCCCC3)CN(C)C1C2 (stereo unspecified) | > 250
22 | CC(C)Oc1ccc(C2Cc3ccccc3C(=O)N2C)cc1 (stereo unspecified) | 115 to 116
23 | O=C(O)c1cc(S(=O)CC(=O)c2ccccc2)cc(C(F)(F)F)c1 (stereo unspecified) | 148 to 151
24 | C[C@@H]1CCCN1CCCOc1ccc(-c2ccc(=O)[nH]n2)cn1 | 178 to 181
25 | CCOC(=O)c1c(-c2ccccc2)c2c3ccccc3cnn2c1C(C)C | 141 to 142
26 | COC1CCC2C3CCC4CC(=O)C(C)(C)CC4(C)C3CCC12C (stereo unspecified) | 116 to 120

Row | Structure (SMILES) | melting point [°C]
27 | N#CCCOc1cccc(O)c1C=O | 84 to 86
28 | C/C(=C(\C#N)C(N)=S)N1CC[C@@H]2CCCC[C@H]2C1 (relative stereo) | 173 to 175
29 | O=C1CCCc2nc3cc(Cl)ccc3c(NCc3ccc(F)cc3)c21 | 156 to 158
30 | COC(=O)C[C@H](O)CC(=O)C=Cc1c(-c2ccc(F)cc2)c(-c2ccccc2)c(C(=O)NCc2ccc(F)cc2)n1C(C)C | 62 to 63
31 | CCCCCCCCCCNC(=O)c1cc(C(=O)NCCCCCCCCCC)cc([N+](=O)[O-])c1 | 115 to 116
32 | COC(=O)C1=Cc2cc(Br)ccc2CCC1 | 83 to 84
33 | CCOc1cccc2oc(-c3ccccc3)cc(=O)c12 | 111 to 113
34 | CCc1nc2c(N)nc(C)c(C)c2n1CCOCCN | 152 to 154
35 | CN(C)c1ccc(C2CC3(C)C(O)CC(O)C3C3CCC4CC5(CCC4=C23)OCCO5)cc1 (stereo unspecified) | 107 to 109
36 | CC(=O)Nc1ccc2c(c1)C(=O)N(CCO)CO2 | 155 to 156
37 | O=C(O)Cc1c(C(=O)c2cc3ccccc3cn2)[nH]c2cc(Cl)ccc12 | 236 to 237
38 | C#Cc1c(-n2ccnc2)nc(C)nc1C(F)(F)F | 121 to 122
39 | CCOc1ccc(CNC(=O)n2cc(F)c(=O)[nH]c2=O)cc1OC | 153
40 | Cc1nnc2n1-c1ccccc1CS2 | 142 to 144
41 | OCc1nnc2n1-c1ccccc1C(c1ccccc1Cl)=NC2 | 196 to 197
42 | CCOC(=O)c1oc(C(C)(C)C)cc1N | 44 to 45
43 | CC(C)(C)NC(=O)[C@@H]1C[C@H](Cl)CN1C(=O)[C@@H](O)[C@H](Cc1ccccc1)NC(=O)[C@H](CC(N)=O)NC(=O)c1cnc2ccccc2n1 | 132 to 134
44 | Clc1ccc(C2CCN(Cc3cncc(-c4ccccc4)c3)CC2)cc1 | 142 to 143
45 | O=[N+]([O-])c1cccc(-c2cccc([N+](=O)[O-])n2)n1 | 206 to 207
46 | O=[N+]([O-])c1ccc2c(c1)OC(CO)CO2 (stereo unspecified) | 132 to 135
47 | CCCCCCCCCCCCc1nnn(C(C(N)=O)(c2ccccc2)c2ccc(F)cc2F)n1 (stereo unspecified) | 62 to 64
48 | CC1(C(O)(Cc2ccc(F)cc2)Cn2cncn2)CC1(F)F (stereo unspecified) | 114
49 | C=CCSC1(C(F)(F)F)CN(C2CC2)C(=O)Nc2ccc(Cl)cc21 (stereo unspecified) | 144 to 146
50 | O=[N+]([O-])c1cccc2c1nc(-c1c(F)cccc1F)n2Cc1c(F)cccc1F | 168 to 170
51 | Cc1nc2c(c(-c3ccccc3)n1)CCN(c1ccnc([C@@H](C)O)n1)C2 | 114 to 116
52 | COC(=O)CCCCC(=O)Nc1c(I)c(C(=O)O)c(I)c(N(C)C(C)=O)c1I | 229 to 232

Row | Structure (SMILES) | melting point [°C]
53 | CC1(NC(=NC#N)Nc2cccnc2)CCC1 | 210 to 212
54 | CC(=O)OC1CCC2C3CCc4cc(O)c(C=O)cc4C3CCC12C (stereo unspecified) | 184
55 | CCOC(=O)c1ccccc1-n1cnc2c(C)c(C(=O)OCC)c(C)cc2c1=O | 116 to 117
56 | Cc1oncc1C(=O)Nc1ccc(NC(=O)CBr)cc1 | 179
57 | CCCCOC(=O)[C@H](Cc1ccc(O)cc1)NC(=O)C1(NC(=O)C2(S)CCCC2)CCCC1 | 106 to 107
58 | CS(=O)(=O)c1ccc(C(=O)c2cc(Cl)ccc2N)cc1 | 176 to 177
59 | CCOC(=O)CCCCCCCn1c(C)nc(-c2ccccc2)c1-c1ccccc1 | 135 to 136
60 | COc1ccc(S(=O)(=O)N2C(=O)C(c3ccccc3OC)(N3CCC[C@H]3C(=S)N(C)C)c3cc(Cl)ccc32)c(OC)c1 (stereo partly specified) | 164
61 | COc1ccc(/C(C)=C\c2ccc(C(=O)O)cc2)cc1C(C)(C)C | 182 to 184
62 | O=C(O)Cc1ccc(OCCNC(=O)C2Cc3ccccc3N2S(=O)(=O)c2ccc(-c3cc(Cl)ccc3Cl)cc2)cc1 (stereo unspecified) | 80 to 86
63 | N#CC(C#N)=C1c2ccsc2-c2c1cc([N+](=O)[O-])cc2[N+](=O)[O-] | 244 to 246
64 | COC(=O)c1c(NCC(C)C)n[nH]c1C | 100 to 103
65 | Cc1cc(-n2cncn2)c2cccc(OCc3c(Cl)ccc(S(=O)(=O)N4CCC[C@H]4C(=O)NCCN(C)C)c3Cl)c2n1 | 106
66 | C1=NC2=C(CCC1)CSC2 | 55 to 57
67 | CC(=O)c1cc2c(s1)C(NC(=O)c1ccc([N+](=O)[O-])cc1)C(O)C(C)(C)O2 (stereo unspecified) | 223 to 225
68 | COc1c(N2C[C@]3(C)CC[C@]3(N)C2)c(F)cc2c(=O)c(C(=O)O)cn([C@@H]3C[C@@H]3F)c12 | 123 to 125
69 | OCCCCOCCCCOCCCCOCCCCO | 22
70 | CCN1CCC(Cc2ccc(Cl)nc2)C1=C[N+](=O)[O-] (stereo unspecified) | 129 to 131
71 | CCOC(=O)Cc1c(C(=O)OCC)[nH]c2ccc(F)cc12 | 128 to 130
72 | O=c1cc(-c2ccc(O)cc2)oc2ccccc12 | 177 to 180
73 | COc1ccc2c(C(=O)O)cc3cc4c(cc3c2c1)OCO4 | 293 to 295
74 | CCCCCC(O)(c1cncnc1)C(C)(C)C (stereo unspecified) | 66 to 67
75 | CC1COCc2nc3c(N)nc4ccc(OCC(=O)N5CCOCC5)cc4c3n21 (stereo unspecified) | 226 to 228
76 | Oc1ccc(-c2ncc3ncc(Cl)cc3n2)cc1 | 231 to 232
77 | COCCCSc1c2c(=O)n(C)c(=O)n(CC(C)C)c2cn1Cc1cccc2ccccc12 | 92 to 94
78 | CC1(C)C(=O)N(CCN2CCc3c([nH]c4ccccc34)C2)c2ccccc21 | 156 to 158

Row | Structure (SMILES) | melting point [°C]
79 | COc1ccc(Nc2ccc3c(n2)CC(C)(C)CC3=O)cc1 | 149 to 150
80 | COc1ccc2cc(-c3cc4ccccc4o3)ccc2c1 | 194 to 195
81 | CCN(CC)C(=O)c1cc(-c2ccccc2)ccc1-c1ccc(OC)cc1 | 139 to 141
82 | CN(CCF)C1CN(c2ccc(N3C[C@H](CN=[N+]=[N-])OC3=O)cc2F)C1 | 60 to 63
83 | CS(=O)(=O)c1ccc(-c2cc3c(cc2-c2ccc(F)cc2)OCO3)cc1 | 173 to 174
84 | C=CC(O)CCCC(O)CCCC1(C)OCCO1 (stereo unspecified) | 52 to 54
85 | COc1cc2ncc(C#N)c(Nc3ccc(C)c(O)c3)c2cc1OC | 222 to 224
86 | COc1cc(Cl)ccc1NC(=O)C(C)(C)C | 66 to 69
87 | COc1ccc2[nH]cc(/C=C/C(=O)c3ccncc3)c2c1 | 236 to 239
88 | CCOC(=O)CCc1c(C)c2c(O)cc(C(C)CCCc3ccccc3)cc2oc1=O (stereo unspecified) | 58 to 70
89 | CCC(C(=O)Nc1c(C)cccc1C)N(C)C (stereo unspecified) | 155 to 157
90 | O=C(c1ccc([N+](=O)[O-])cc1)N1CCC(OCc2ccc(F)cc2)CC1 | 120
91 | CC1COCc2nc3c(N)nc4ccc(OC(=O)N5CCCC5)cc4c3n21 (stereo unspecified) | 218 to 219
92 | O=S(=O)(c1ccc2c(c1)OC(c1ccccc1)(c1ccccc1)O2)N1CCCCC1 | 163 to 164
93 | CCOC(=O)COc1cc(O)c2c(c1Cl)OC1(CCCCC1)CC2=O | 110 to 111
94 | CN1Cc2c(-c3noc(CN4CCCCC4)n3)ncn2-c2ccc(F)cc2C1=O | 182 to 184
95 | CCC1(C)CC(=O)C(C(=O)Nc2ccc(C(F)(F)F)cc2)C(=O)C1 (stereo unspecified) | 99 to 100
96 | S=C(NCCN(Cc1ccc(Cl)c(Cl)c1)c1ccc(Br)cn1)Nc1ccc(N2CCCCC2)cc1 | 146 to 148
97 | OCCCCCc1ccc2ccccc2c1O | 43 to 46
98 | C=CCNC(=O)n1nc(NC)n(C)c1=O | 136 to 137
99 | Clc1cc(Cl)cc(Oc2cccc(-c3nnc(Nc4ccc(Cl)c(Cl)c4)s3)c2)c1 | 242 to 243
100 | Cn1cc(-c2ccccc2)c(=O)c(-c2cccc(Cl)c2)c1 | 172
101 | COc1cc(OCc2ccc3ccccc3c2)cc(C(=O)c2nccs2)c1 | 105 to 106
